Where a SMILES comes first, the peptide text is derived from it. [ ]: non-standard residue; d: D form. Tle = CC(C)(C)[C@H](N)C(=O)O; dDab = NCC[C@@H](N)C(=O)O; NMeA = CN[C@@H](C)C(=O)O; Orn = NCCC[C@H](N)C(=O)O; Dab = NCC[C@H](N)C(=O)O; Dap = NC[C@H](N)C(=O)O

The subject of series [1] is Acinetobacter baumannii DSM 30008. Format: cell-based. The following applies: DSM 30008. In short, it runs like this: (§1)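 Peptide activity was tested by NCCLS broth microdilution with slight modifications. Bacteria were diluted in cation-adjusted Mueller-Hinton II broth to approximately 10^6 CFU/mL against a 0.5 McFarland standard. They were then exposed to two-fold serial peptide dilutions in broth containing 0.002% final polysorbate 80.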

For series [2], the system named is Klebsiella pneumoniae ATCC 13883. Format: cell-based. The settings on record: ATCC 13883. In short, it runs like this:
as §1

In series [3] the test system is Escherichia coli ATCC 25922. Format: cell-based. The settings on record: ATCC 25922. In short, it runs like this:
as §1

The subject of series [4] is human red blood cells (hRBC). Briefly: Hemolysis: hemolytic activity at 100 μg/mL, 1 h at 37° C. The settings on record: red cells of human, 1 h, 100. In short, it runs like this:
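Peptides at 100 μg/mL incubated with washed 20% (v/v) human erythrocytes (~0.9×10^9 cells/mL) for 1 h at 37 °C with shaking. Released hemoglobin read at OD 540 nm in supernatant; 0% and 100% lysis from PBS/0.001% acetic acid and 2.5% Triton X-100.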

For `CC(C)[C@@H]1NC(=O)[C@H](C)N(C)C(=O)[C@H]2CCCN2C(=O)[C@H](CO)NC(=O)[C@H](C)NC(=O)[C@H](C(C)(C)C)NC(=O)[C@H](CCN)NC(=O)[C@H](Cc2c[nH]c3ccccc23)NC(=O)[C@H](CCN)NC(=O)[C@@H](CCN)NC(=O)[C@H](CN)NC(=O)[C@H](CCN)NC(=O)[C@H](Cc2ccc(O)cc2)NC(=O)[C@H](CO)NC1=O` [Example 44, cyclo(-Val-Ser-Tyr-Dab-Dap-^DDab-Dab-Trp-Dab-tBuGly-Ala-Ser-^DPro-NMeAla-)] (cyclo(AS[dP][NMeA]VSY[Dab][Dap][dDab][Dab]W[Dab][Tle])), in series [1], the “Acinetobacter baumannii DSM 30008 MIC” value was determined as 2 µg/mL. Also, the “Klebsiella pneumoniae ATCC 13883 MIC” value in series [2] was 0.5 µg/mL. In addition, in series [3], the “Escherichia coli ATCC 25922 MIC” value was 1 µg/mL. Besides, the “Hemolysis at 100 μg/mL” value in series [4] is reported as 1%.

Regarding `CC(C)[C@@H]1NC(=O)[C@@H]2CCCN2C(=O)[C@@H](C)NC(=O)[C@H]([C@@H](C)O)NC(=O)[C@H](CO)NC(=O)[C@H](C(C)(C)C)NC(=O)[C@H](CCN)NC(=O)[C@H](Cc2c[nH]c3ccccc23)NC(=O)[C@H](CCN)NC(=O)[C@@H](CCN)NC(=O)[C@H](CN)NC(=O)[C@H](CCN)NC(=O)[C@H](Cc2ccc(O)cc2)NC(=O)[C@H](CN)NC1=O` [Example 45, cyclo(-Val-Dap-Tyr-Dab-Dap-^DDab-Dab-Trp-Dab-tBuGly-Ser-Thr-^DAla-Pro-)] (cyclo([Dab][Dap][dDab][Dab]W[Dab][Tle]ST[dA]PV[Dap]Y)), the “Acinetobacter baumannii DSM 30008 MIC” value in series [1] was 1 µg/mL. The “Klebsiella pneumoniae ATCC 13883 MIC” value in series [2] was 0.25 µg/mL. Also, the “Escherichia coli ATCC 25922 MIC” value in series [3] is 0.5 µg/mL. Moreover, the “Hemolysis at 100 μg/mL” value in series [4] turned out to be 4%.

Consider `CC(C)[C@@H]1NC(=O)[C@@H]2CCCN2C(=O)[C@@H](C)NC(=O)[C@H]([C@@H](C)O)NC(=O)[C@H](CO)NC(=O)[C@H](C(C)(C)C)NC(=O)[C@H](CCN)NC(=O)[C@H](Cc2c[nH]c3ccccc23)NC(=O)[C@H](CCN)NC(=O)[C@@H](CCN)NC(=O)[C@H](CCN)NC(=O)[C@H](CCN)NC(=O)[C@H](Cc2ccc(O)cc2)NC(=O)[C@H](CN)NC1=O` [Example 46, cyclo(-Val-Dap-Tyr-Dab-Dab-^DDab-Dab-Trp-Dab-tBuGly-Ser-Thr-^DAla-Pro-)] (cyclo([Dab][Dab][dDab][Dab]W[Dab][Tle]ST[dA]PV[Dap]Y)), for which the “Acinetobacter baumannii DSM 30008 MIC” value in series [1] was determined as 1 µg/mL. Also, the “Klebsiella pneumoniae ATCC 13883 MIC” value in series [2] was determined as 0.5 µg/mL. Further, in series [3], the “Escherichia coli ATCC 25922 MIC” value turned out to be 1 µg/mL. The “Hemolysis at 100 μg/mL” value in series [4] is reported as 0%.

`CC[C@H](C)[C@@H]1NC(=O)[C@H](Cc2ccc(O)cc2)NC(=O)[C@H]2CCCN2C(=O)[C@H](CO)NC(=O)[C@H](C)NC(=O)[C@H](C(C)(C)C)NC(=O)[C@H](CCN)NC(=O)[C@H](Cc2c[nH]c3ccccc23)NC(=O)[C@H](CCN)NC(=O)[C@@H](CCN)NC(=O)[C@H](CCCN)NC(=O)[C@H](CCN)NC(=O)[C@H](Cc2ccc(O)cc2)NC(=O)[C@H]([C@@H](C)O)NC1=O` [Example 47, cyclo(-Ile-Thr-Tyr-Dab-Orn-^DDab-Dab-Trp-Dab-tBuGly-Ala-Ser-^DPro-Tyr-)] (HELM PEPTIDE1{A.S.[dP].Y.I.T.Y.[Dab].[Orn].[NCC[C@@H](N[*:1])C(=O)[*:2]].[Dab].W.[Dab].[CC(C)(C)[C@H](N[*:1])C(=O)[*:2]]}$PEPTIDE1,PEPTIDE1,1:R1-14:R2$$$V2.0): in series [1], the “Acinetobacter baumannii DSM 30008 MIC” value was found to be 4 µg/mL. The “Klebsiella pneumoniae ATCC 13883 MIC” value in series [2] was 1 µg/mL. Moreover, the “Escherichia coli ATCC 25922 MIC” value in series [3] was 1 µg/mL. Besides, in series [4], the “Hemolysis at 100 μg/mL” value is reported as 0%.

As to `CC[C@H](C)[C@@H]1NC(=O)[C@@H]2CCCN2C(=O)[C@@H](CCN)NC(=O)[C@H](CO)NC(=O)[C@H](C)NC(=O)[C@H](C(C)(C)C)NC(=O)[C@H](CCN)NC(=O)[C@H](Cc2c[nH]c3ccccc23)NC(=O)[C@H](CCN)NC(=O)[C@@H](CCN)NC(=O)[C@H](CCCN)NC(=O)[C@H](CCN)NC(=O)[C@H](Cc2ccc(O)cc2)NC(=O)[C@H]([C@@H](C)O)NC1=O` [Example 48, cyclo(-Ile-Thr-Tyr-Dab-Orn-^DDab-Dab-Trp-Dab-tBuGly-Ala-Ser-^DDab-Pro-)] (cyclo(AS[dDab]PITY[Dab][Orn][dDab][Dab]W[Dab][Tle])), the “Acinetobacter baumannii DSM 30008 MIC” value in series [1] worked out at 8 µg/mL. In series [2], the “Klebsiella pneumoniae ATCC 13883 MIC” value turned out to be 2 µg/mL. In addition, the “Escherichia coli ATCC 25922 MIC” value in series [3] turned out to be 1 µg/mL. For the same molecule, the “Hemolysis at 100 μg/mL” value in series [4] is recorded as 1%.

Turning to `CC[C@H](C)[C@@H]1NC(=O)[C@H](Cc2ccc(O)cc2)NC(=O)[C@@H](C)NC(=O)[C@H](CO)NC(=O)[C@H](C)NC(=O)[C@H](C(C)(C)C)NC(=O)[C@H](CCN)NC(=O)[C@H](Cc2c[nH]c3ccccc23)NC(=O)[C@H](CCN)NC(=O)[C@@H](CCN)NC(=O)[C@H](CCCN)NC(=O)[C@H](CCN)NC(=O)[C@H](Cc2ccc(O)cc2)NC(=O)[C@H]([C@@H](C)O)NC1=O` [Example 49, cyclo(-Ile-Thr-Tyr-Dab-Orn-^DDab-Dab-Trp-Dab-tBuGly-Ala-Ser-^DAla-Tyr-)] (HELM PEPTIDE1{A.S.[dA].Y.I.T.Y.[Dab].[Orn].[NCC[C@@H](N[*:1])C(=O)[*:2]].[Dab].W.[Dab].[CC(C)(C)[C@H](N[*:1])C(=O)[*:2]]}$PEPTIDE1,PEPTIDE1,1:R1-14:R2$$$V2.0), the “Acinetobacter baumannii DSM 30008 MIC” value in series [1] was 4 µg/mL. The “Klebsiella pneumoniae ATCC 13883 MIC” value in series [2] is 2 µg/mL. Besides, the “Escherichia coli ATCC 25922 MIC” value in series [3] was 2 µg/mL. For the same molecule, the “Hemolysis at 100 μg/mL” value in series [4] was 2%.

As for `C[C@@H]1NC(=O)[C@H](C(C)(C)C)NC(=O)[C@H](CCN)NC(=O)[C@H](Cc2c[nH]c3ccccc23)NC(=O)[C@H](CCN)NC(=O)[C@@H](CCN)NC(=O)[C@H](CCCN)NC(=O)[C@H](CCN)NC(=O)[C@H](Cc2ccc(O)cc2)NC(=O)[C@H](CN)NC(=O)[C@H](Cc2ccccc2)NC(=O)[C@@H]2CCCN2C(=O)[C@@H](CCN)NC(=O)[C@H](CO)NC1=O` [Example 50, cyclo(-Phe-Dap-Tyr-Dab-Orn-^DDab-Dab-Trp-Dab-tBuGly-Ala-Ser-^DDab-Pro-)] (cyclo(AS[dDab]PF[Dap]Y[Dab][Orn][dDab][Dab]W[Dab][Tle])), in series [1], the “Acinetobacter baumannii DSM 30008 MIC” value is 2 µg/mL. The “Klebsiella pneumoniae ATCC 13883 MIC” value in series [2] is 0.5 µg/mL. Moreover, in series [3], the “Escherichia coli ATCC 25922 MIC” value was determined as 1 µg/mL. In addition, the “Hemolysis at 100 μg/mL” value in series [4] came out at 11%.

In the case of `CC(C)C[C@@H]1NC(=O)[C@H](CCN)NC(=O)[C@@H](CCN)NC(=O)[C@H](C(C)C)NC(=O)[C@@H]2CSSC[C@H](NC1=O)C(=O)N[C@@H](Cc1ccc(O)cc1)C(=O)N[C@@H](CC(N)=O)C(=O)N[C@@H](CCCN)C(=O)N[C@H](CCN)C(=O)N[C@@H](CCN)C(=O)N[C@@H](Cc1c[nH]c3ccccc13)C(=O)N[C@@H](CO)C(=O)N[C@@H](Cc1ccc(O)cc1)C(=O)N2` [Example 51, cyclo(-Leu-Cys-Tyr-Asn-Orn-^DDab-Dab-Trp-Ser-Tyr-Cys-Val-^DDab-Dab-)] (HELM PEPTIDE1{C.V.[NCC[C@@H](N[*:1])C(=O)[*:2]].[Dab].L.C.Y.N.[Orn].[NCC[C@@H](N[*:1])C(=O)[*:2]].[Dab].W.S.Y}$PEPTIDE1,PEPTIDE1,1:R3-6:R3|PEPTIDE1,PEPTIDE1,1:R1-14:R2$$$V2.0), the “Acinetobacter baumannii DSM 30008 MIC” value in series [1] was found to be 0.75 µg/mL. For the same molecule, in series [2], the “Klebsiella pneumoniae ATCC 13883 MIC” value turned out to be 0.75 µg/mL. The “Escherichia coli ATCC 25922 MIC” value in series [3] was 0.75 µg/mL. In addition, the “Hemolysis at 100 μg/mL” value in series [4] was found to be 2%.

As to `CC(C)C[C@@H]1NC(=O)[C@H](CCCNC(=N)N)NC(=O)[C@@H](CCN)NC(=O)[C@H](C(C)C)NC(=O)[C@@H]2CSSC[C@H](NC1=O)C(=O)N[C@@H](Cc1ccc(O)cc1)C(=O)N[C@@H](CO)C(=O)N[C@@H](CCCN)C(=O)N[C@H](CCN)C(=O)N[C@@H](CCN)C(=O)N[C@@H](Cc1c[nH]c3ccccc13)C(=O)N[C@@H](CC(N)=O)C(=O)N[C@@H](Cc1ccc(O)cc1)C(=O)N2` [Example 52, cyclo(-Leu-Cys-Tyr-Ser-Orn-^DDab-Dab-Trp-Asn-Tyr-Cys-Val-^DDab-Arg-)] (HELM PEPTIDE1{C.V.[NCC[C@@H](N[*:1])C(=O)[*:2]].R.L.C.Y.S.[Orn].[NCC[C@@H](N[*:1])C(=O)[*:2]].[Dab].W.N.Y}$PEPTIDE1,PEPTIDE1,1:R3-6:R3|PEPTIDE1,PEPTIDE1,1:R1-14:R2$$$V2.0), the “Acinetobacter baumannii DSM 30008 MIC” value in series [1] was found to be 1.25 µg/mL. The “Klebsiella pneumoniae ATCC 13883 MIC” value in series [2] worked out at 1.5 µg/mL. In series [3], the “Escherichia coli ATCC 25922 MIC” value turned out to be 0.75 µg/mL. In addition, the “Hemolysis at 100 μg/mL” value in series [4] was 1%.

Turning to `CC(C)C[C@@H]1NC(=O)[C@H](CCCNC(=N)N)NC(=O)[C@@H](CCN)NC(=O)[C@H](C(C)C)NC(=O)[C@@H]2CSSC[C@H](NC1=O)C(=O)N[C@@H](Cc1ccc(O)cc1)C(=O)N[C@@H](CC(N)=O)C(=O)N[C@@H](CCCN)C(=O)N[C@H](CCN)C(=O)N[C@@H](CCN)C(=O)N[C@@H](Cc1c[nH]c3ccccc13)C(=O)N[C@@H](CC(N)=O)C(=O)N[C@@H](Cc1ccc(O)cc1)C(=O)N2` [Example 53, cyclo(-Leu-Cys-Tyr-Asn-Orn-^DDab-Dab-Trp-Asn-Tyr-Cys-Val-^DDab-Arg-)] (HELM PEPTIDE1{C.V.[NCC[C@@H](N[*:1])C(=O)[*:2]].R.L.C.Y.N.[Orn].[NCC[C@@H](N[*:1])C(=O)[*:2]].[Dab].W.N.Y}$PEPTIDE1,PEPTIDE1,1:R3-6:R3|PEPTIDE1,PEPTIDE1,1:R1-14:R2$$$V2.0), the “Acinetobacter baumannii DSM 30008 MIC” value in series [1] was determined as 1.5 µg/mL. In addition, in series [2], the “Klebsiella pneumoniae ATCC 13883 MIC” value amounted to 1 µg/mL. In series [3], the “Escherichia coli ATCC 25922 MIC” value was 1 µg/mL. Also, the “Hemolysis at 100 μg/mL” value in series [4] is reported as 1%.

Source of the values: US11753446B2, “Beta-hairpin peptidomimetics” (POLYPHOR AG, priority 2014, dated 2023).
